This assay concerns the target T1, Phenylalanine--tRNA ligase alpha/beta subunit (Staphylococcus aureus, UniProt P68849+Q9AGR3).
T1 sequence (P68849 whole entry): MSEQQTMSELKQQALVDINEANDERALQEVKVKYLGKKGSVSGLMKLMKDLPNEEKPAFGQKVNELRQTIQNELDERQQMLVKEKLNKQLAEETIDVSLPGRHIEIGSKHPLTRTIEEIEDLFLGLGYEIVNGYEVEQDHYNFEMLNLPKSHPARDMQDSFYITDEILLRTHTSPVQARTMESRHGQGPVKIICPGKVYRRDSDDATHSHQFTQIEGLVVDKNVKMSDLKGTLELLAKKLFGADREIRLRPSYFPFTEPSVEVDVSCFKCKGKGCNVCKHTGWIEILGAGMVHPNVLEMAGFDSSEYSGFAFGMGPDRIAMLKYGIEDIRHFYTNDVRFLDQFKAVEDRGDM
T1 sequence (Q9AGR3 whole entry): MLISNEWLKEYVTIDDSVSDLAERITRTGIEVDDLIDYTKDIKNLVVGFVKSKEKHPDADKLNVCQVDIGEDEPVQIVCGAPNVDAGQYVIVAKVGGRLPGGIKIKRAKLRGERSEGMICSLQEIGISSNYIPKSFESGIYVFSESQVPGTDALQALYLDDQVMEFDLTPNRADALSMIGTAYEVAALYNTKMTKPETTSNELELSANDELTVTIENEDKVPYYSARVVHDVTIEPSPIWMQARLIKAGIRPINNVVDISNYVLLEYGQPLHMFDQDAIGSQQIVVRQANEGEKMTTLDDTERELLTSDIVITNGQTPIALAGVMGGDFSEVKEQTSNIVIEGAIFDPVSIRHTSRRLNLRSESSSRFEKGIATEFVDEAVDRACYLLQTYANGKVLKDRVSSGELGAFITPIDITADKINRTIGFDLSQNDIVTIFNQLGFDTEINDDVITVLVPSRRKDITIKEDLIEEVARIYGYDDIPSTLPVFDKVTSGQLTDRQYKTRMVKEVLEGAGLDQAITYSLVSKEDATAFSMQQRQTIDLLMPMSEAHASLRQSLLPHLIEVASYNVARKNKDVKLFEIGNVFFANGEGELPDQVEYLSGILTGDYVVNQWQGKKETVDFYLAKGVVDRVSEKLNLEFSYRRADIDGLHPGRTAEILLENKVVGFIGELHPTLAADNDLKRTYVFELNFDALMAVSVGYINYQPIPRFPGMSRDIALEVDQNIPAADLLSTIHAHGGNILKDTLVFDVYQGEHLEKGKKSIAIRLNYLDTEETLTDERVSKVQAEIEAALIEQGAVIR
In words: Homogeneous Enzyme Assay with SPA Beads. How it is done:
The reactions were performed in […] 384-well Packard Optiplates. After 10 min of incubation, the reaction was stopped by addition of a continuously shaken suspension of YSi SPA beads at pH 2. Under acidic conditions, SPA beads bind tRNA aggregates, while radiolabeled amino acid substrate remains in solution. The beads were allowed to settle for at least 45 min and the plates were counted in a microplate scintillation counter TopCount (Packard).

A word on the IC50: it is the concentration needed to halve the response being measured. High values mean a need for much substance, low ones inhibition by little substance.

Compound `O=C(O)CCCOc1ccccc1CNCC(O)c1cc(Br)cs1` (configuration not stated) [4-[2-({[2-(4-bromothiophen-2-yl)-2-hydroxyethyl]amino}methyl)phenoxy]butanoic acid] gave an IC50 (pH 2) of 0.043 µM.

For `OC(CNCc1ccccc1N1CCOCC1)c1cccc(C(F)(F)F)c1` (configuration not stated) [2-({[2-(morpholin-4-yl)phenyl]methyl}amino)-1-[3-(trifluoromethyl)phenyl]ethan-1-ol], the IC50 (pH 7.9, 37 °C) is > 10 µM.

For the origin of these results see BindingDB's records for doi:10.1016/j.bmcl.2005.03.003 (Gsk, 2005).
